Columns and labels:
A2780 = assay: In vitro growth inhibition of PI3KCA amplified/mutant tumor cells A2780; format: cell-based; details: Homo sapiens; A2780; PIK3CA E365K; read-out: IC50 growth inhibition
Procedure: (§1) Suspension culture cells were collected by centrifugation (1700 rpm, 3 minutes). The supernatant was discarded and the cells were counted. According to each cell growth cycle, different concentrations of cells were prepared (5˜10×10^4 cells per ml), and inoculated to 96-well plates (Corning), with 100 μl per well, and incubated overnight at 37° C., 5% CO2. The next day, the test compound was added to the cultured cells (2 wells in parallel). The final concentration of the solvent was less than 1/1,000. The cells were further cultured for 3 to 5 days and assayed by MTT.
(§2) The adherent cells were taken out from the cell culture medium, and immediately added to a freshly prepared complete medium containing 10% CCK8 (5% FBS), 100 ul per hole. The suspended cells were directly added to a CCK8 reagent until reaching a final concentration of 10% and cultured for 1 to 4 hours.
(§3) T=optical density of drug-treated cell wells−optical density of blank control wells; T0=optical density of cell wells before drug treatment−optical density of blank control wells; C=optical density of solvent control wells−optical density of blank control wells. […] The experiments were repeated 1 to 3 times and a statistical analysis of data was conducted.

HCT116 = assay: In vitro growth inhibition of PI3KCA amplified/mutant tumor cells HCT116; format: cell-based; details: Homo sapiens; HCT-116; PI3KCAH1047R; KRAS G13D; read-out: IC50 growth inhibition
Procedure: as §1, §2, §3

JIMT-1 = assay: In vitro growth inhibition of JIMT-1 cells; format: cell-based; details: Homo sapiens, FGFR1 amp, HER2 amp, PI3KCA C420R
Procedure: as §1, with “Adherent cells were digested with 0.25% trypsin-EDTA (Gibco). Suspension” for “Suspension”
(§4) The MTT test reagent was a Dojindo CCK8 kit and the Microplate Reader was a THERMO […] FC instrument.
(§5) The adherent cells were taken out from the cell culture medium, and immediately added to a freshly prepared complete medium containing 10% CCK8 (5% FBS), 100 ul per hole. The suspended cells were directly added to a CCK8 reagent until reaching a final concentration of 10% and cultured for 1 to 4 hours. When a dark yellow color could be observed in the solvent control wells, the absorbance value at OD450 nm was measured and the cell growth rate was calculated according to the following formula: Cell Growth Rate (%)=100×(T−T0)/(C−T0)
as §3
(§6) Mutations in the FGFR1-4 gene often occur in different types of cancer patients. In order to test the growth inhibition activity of the present compound against tumor cells expressing different FGFR variants, tumor cell lines expressing representative FGFR1-4 were selected for further determining the activity of compounds 25, 66, 38 and 95 of the present invention. BGJ398, a selective inhibitor of FGFR1-4, was used as the control compound. The specific test method is the same as test example 1.

HGC-27 = assay: In vitro growth inhibition of PI3KCA amplified/mutant tumor cells HGC-27; format: cell-based; details: Homo sapiens; HGC-27; PI3KCA H1047R; FGFR1OP2+++; read-out: IC50 growth inhibition
Procedure: as §1, §2, §3

NCI-H460 = assay: In vitro growth inhibition of PI3KCA amplified/mutant tumor cells NCI-H460; format: cell-based; details: Homo sapiens; NCI-H460; PI3KCA E545K; KRAS Q61H; read-out: IC50 growth inhibition
Procedure: as §1, §2, §3

Hep3B2 (FGFR3/4+++) = assay: In vitro growth inhibition of Hep3B2 tumor cells (MTT/CCK8); format: cell-based, Human; details: Homo sapiens, Hep3B; in vitro growth inhibition (or induction of apoptosis), cells cultured 3 to 5 days, MTT (CCK8); read-out: IC50 Hep3B2 (FGFR3/4+++)
RT112/84 = assay: In vitro growth inhibition of RT112/84 cells; format: cell-based; details: Homo sapiens, FGFR3-TACC3
Procedure: as §1, with “Adherent cells were digested with 0.25% trypsin-EDTA (Gibco). Suspension” for “Suspension”
as §4, §5, §3, §6

Huh-7 = assay: In vitro growth inhibition of Huh-7 cells; format: cell-based; details: Homo sapiens, FGFR3+++, FGFR4 +++
Procedure: as §1, with “Adherent cells were digested with 0.25% trypsin-EDTA (Gibco). Suspension” for “Suspension”
as §4, §5, §3, §6

MFM-223 = assay: In vitro growth inhibition of MFM-223 cells; format: cell-based; details: Homo sapiens, PI3KCA H1047R, FGFR1 amp, FGFR2 amp
Procedure: as §1, with “Adherent cells were digested with 0.25% trypsin-EDTA (Gibco). Suspension” for “Suspension”
as §4, §5, §3, §6

AN3-CA = assay: In vitro growth inhibition of AN3-CA cells; format: cell-based; details: Homo sapiens, FGFR2 mutant
Procedure: as §1, with “Adherent cells were digested with 0.25% trypsin-EDTA (Gibco). Suspension” for “Suspension”
as §4, §5, §3, §6

H1703 (PDGFRa amp) = assay: In vitro growth inhibition of H1703 tumor cells (MTT/CCK8); format: cell-based, Human; details: Homo sapiens, NCI-H1703; in vitro growth inhibition (or induction of apoptosis), cells cultured 3 to 5 days, MTT (CCK8); read-out: IC50 H1703 (PDGFRa amp)
DMS114 = assay: In vitro growth inhibition of DMS114 cells; format: cell-based; details: Homo sapiens, DMS-114, FGFR1 amp
Procedure: as §1, with “Adherent cells were digested with 0.25% trypsin-EDTA (Gibco). Suspension” for “Suspension”
as §4, §5, §3, §6

HCC1954 = assay: In vitro growth inhibition of PI3KCA amplified/mutant tumor cells HCC1954; format: cell-based; details: Homo sapiens; HCC1954; PI3KCA H1047R; HER2 amp; read-out: IC50 growth inhibition
Procedure: as §1, §2, §3

SW48 = assay: In vitro growth inhibition of PI3KCA amplified/mutant tumor cells SW48; format: cell-based; details: Homo sapiens; SW48; PI3KCA G914R; EGFR G719S; read-out: IC50 growth inhibition
Procedure: as §1, §2, §3

| SMILES | IC50 (A2780) [nM] | IC50 (HCT116) [nM] | IC50 (JIMT-1) [nM] | IC50 (HGC-27) [nM] | IC50 (NCI-H460) [nM] | IC50 (Hep3B2 (FGFR3/4+++)) [nM] | IC50 (RT112/84) [nM] | IC50 (Huh-7) [nM] | IC50 (MFM-223) [nM] | IC50 (AN3-CA) [nM] | IC50 (H1703 (PDGFRa amp)) [nM] | IC50 (DMS114) [nM] | IC50 (HCC1954) [nM] | IC50 (SW48) [nM] |
| --- | --- | --- | --- | --- | --- | --- | --- | --- | --- | --- | --- | --- | --- | --- |
| COCCOc1cc2nccc(Oc3ccc(NC(=O)Nc4cc(C(C)(C)C)n[nH]4)c(Cl)c3)c2cc1NC(C)=O [Compound 66, N-[4-{4-[3-(5-tert-butyl-2H-pyrazol-3-yl)-ureido]-3-chloro-phenoxy}-7-(2-methoxy-ethoxy)-quinolin-6-yl]-acetamide] | 7.68 | 26.7 | 19.6 | 39.9 | 26.2 | 6.06 | 25.6 | 1.98 | 17.9 | 3.95 | 7.54 | 3.92 | 37.5 | 28.2 |
| COc1cc2nccc(Oc3ccc(NC(=O)Nc4cc(C(C)(C)C)nn4C)c(Cl)c3Cl)c2cc1C(N)=O [Compound 38, 4-{4-[3-(5-tert-butyl-2-methyl-2H-pyrazol-3-yl)-ureido]-2,3-dichloro-phenoxy}-7-methoxyquinolin-6-carboxamide] | 9.1 | 11.9 | 19.1 | 19.2 | 25.7 | 4.24 | 10.1 | 3.99 | 14.9 | 3.67 | 1.81 | 4.1 | 11.8 | 13.6 |
| CN1CCN(CCCOc2cc3nccc(Oc4ccc(NC(=O)Nc5cc(C(C)(C)C)n[nH]5)c(Cl)c4Cl)c3cc2C(N)=O)CC1 [Compound 95] | 9.2 | 33.2 | 20.6 | 30.9 | 34.5 | 8.52 | 9.76 | 7.89 | 32.6 | 3.89 | 3.81 | 2.94 | 9.94 | 41.9 |

Reference: patent publication US10800741B2 (ANCUREALL PHARMACEUTICAL (SHANGHAI) CO., LTD., priority 2017, dated 2020)
